Source: US11246865B2 (priority 2017, dated 2022)
Values joined by “and” are separate entries in the source; they are usually repeats but may differ in a detail not shown here. Equal values may be shown once. “Also recorded” adds a separate entry of the source.

Tests used:
[1] = rat, in vivo
[2] = Preclinical toxicity profile; format: in vivo
Source text: The preclinical toxicity profile of DPI-125 was as expected for an opioid compound, with two positive exceptions.

[3] = Phase 1 study DPI-125.IV.001, safety of single intravenous bolus doses; format: in vivo, human
Method: Given this positive preclinical data, Good Laboratory Practice (GLP) Investigational New Drug (IND) enabling toxicology studies were performed. DPI-125 was tested in human subjects in a PK and safety study. DPI-125.IV.001, was a randomized, single-center, double-blind, placebo-controlled, dose escalating Phase 1 study. The primary objective was to evaluate the safety of single doses of DPI-125 administered by intravenous bolus infusion in normal healthy adult subjects. Male and female subjects between 18 and 55 years of age, inclusive, who were in good health and who were not taking any medications were eligible for enrollment. For each dose group, cohorts of 6 subjects were randomized to receive either placebo (n=1) or DPI-125 for Injection (n=5) as a single bolus dose of 5, 10, 20, or 50 μg/kg administered over 2 minutes. A final cohort received 25 μg/kg administered over 1 minute. For this first in human study, it was decided that 50 μg/kg should be the highest dose to be tested so the maximum tolerated dose was not determined.

[4] = Study 1: tolerance and cross-tolerance, tail pinch test (MPE); format: in vivo, rat
[5] = Studies 2 and 3: antinociceptive ED50 in naive and tolerant animals, tail pinch test; format: in vivo, rat; conditions: for antinociceptive ED50: s.c.; for antinociceptive ED50 / ED50: 20 min tail pinch; for ED50: Rattus norvegicus, sc, 20 min
[6] = biological target: T1, delta receptor in the mouse vas deferens (Mus musculus, UniProt P32300); assay: Mouse vas deferens delta receptor agonism
T1 construct: from tissue; host or cells: mouse vas deferens

[7] = biological target: T2, delta receptor in the mouse brain (Mus musculus, UniProt P32300); assay: Mouse brain delta receptor agonism
T2 construct: from tissue; host or cells: mouse brain

[8] = rat, in vivo; remark: listed apart in the source
in vivo = conditions: rat
[9] = healthy adults, single IV bolus 5-50 μg/kg

T1 sequence (P32300 whole entry): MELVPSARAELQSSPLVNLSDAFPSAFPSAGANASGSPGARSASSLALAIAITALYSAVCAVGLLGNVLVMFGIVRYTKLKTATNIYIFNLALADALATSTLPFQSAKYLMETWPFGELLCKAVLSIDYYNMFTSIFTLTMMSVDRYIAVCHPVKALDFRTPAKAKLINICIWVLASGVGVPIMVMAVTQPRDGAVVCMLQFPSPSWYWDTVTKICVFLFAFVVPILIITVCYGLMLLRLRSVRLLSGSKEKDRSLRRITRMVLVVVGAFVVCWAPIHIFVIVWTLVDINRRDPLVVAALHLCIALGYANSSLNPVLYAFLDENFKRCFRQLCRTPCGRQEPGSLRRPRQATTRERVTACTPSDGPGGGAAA
T2 sequence (P32300 whole entry): as above

C=CCN1C[C@H](C)N([C@H](c2ccsc2)c2cccc(O)c2)C[C@H]1C [DPI-125, (−)3-((S)-((2S,5R)-4-allyl-2,5-dimethyl-1-piperazinyl)(3-thienyl)methyl)phenol]
Analgesic ED50 Tail Pinch [1]: 0.050 mg/kg
analgesic potency relative to morphine [1]: > 40 ×
antinociceptive potency relative to morphine [1]: 47 times
emesis ([2]; even at the highest doses given): did not occur
flushing, reddened mucous membranes or urticaria ([2]; in vivo): did not produce any
seizure activity / seizure liability ([3]; EEG, first in human trial): no seizure activity was noted; also recorded: does not have seizure liability
dysphoria as a side effect ([3]; first in human trial): nor does it exhibit dysphoria
corrected QT intervals [3, 9]: No time- or dose-related trends
deaths or serious AEs [3, 9]: no deaths or any other serious AEs reported
most common drug-related AEs [3, 9]: somnolence, dizziness, and paraesthesia
tolerability [3, 9]: well tolerated
Mean MPE ([4]; DPI-125 tolerant animals, challenge dose 1 (day 7), 30 min): 3.51%
Mean MPE ([4]; DPI-125 tolerant animals, challenge dose 1 (day 7), morphine 5.0 or DPI-125 1.0 mg/kg s.c., 20 min): 8.77%
Mean MPE ([4]; DPI-125 tolerant animals, challenge dose 2 (day 7.25), 20 min): 22.82%
Mean MPE ([4]; DPI-125 tolerant animals, challenge dose 2 (day 7.25), 30 min): 7.90%
Mean MPE ([4]; DPI-125 tolerant animals, challenge dose 3 (day 8), 20 min): 9.65%
Mean MPE ([4]; DPI-125 tolerant animals, challenge dose 3 (day 8), 30 min): 2.63%
Mean MPE ([4]; DPI-125 tolerant animals, challenge dose 4 (day 8.25), 20 min): 1.8±1.8% and 1.76%
Mean MPE ([4]; DPI-125 tolerant animals, challenge dose 4 (day 8.25), 30 min): 0.88%
MPE on Day 1 ([4]; all animals, both dose points and both time points (20 and 30 min)): 100%
time to maximal/complete tolerance ([4]; b.i.d. s.c. dosing, morphine 5.0 mg/kg, DPI-125 1.0 mg/kg): 8 days
Mean MPE ([4]; morphine tolerant animals, challenge dose 1 (day 6), 30 min): 80.7±15.2% and 80.7%
Mean MPE ([4]; morphine tolerant animals, challenge dose 1 (day 6), morphine 5.0 or DPI-125 1.0 mg/kg s.c., 20 min): 64.9%
Mean MPE ([4]; morphine tolerant animals, challenge dose 2 (day 6.25), 20 min): 81.6±12.6% and 81.6%
Mean MPE ([4]; morphine tolerant animals, challenge dose 2 (day 6.25), 30 min): 42.1%
Mean MPE ([4]; morphine tolerant animals, challenge dose 3 (day 7), 20 min): 50.9%
Mean MPE ([4]; morphine tolerant animals, challenge dose 3 (day 7), 30 min): 57.0%
Mean MPE ([4]; morphine tolerant animals, challenge dose 4 (day 7.25), 20 min): 30.7%
Mean MPE ([4]; morphine tolerant animals, challenge dose 4 (day 7.25), 30 min): 26.3%
Mean MPE ([4]; tolerance development, dose 1 (day 1), s.c. BID (morphine 5.0, DPI-125 1.0 mg/kg), 20 minutes post-drug): 100.0%
Mean MPE ([4]; tolerance development, dose 1 (day 1), s.c. BID (morphine 5.0, DPI-125 1.0 mg/kg), 30 minutes post-drug): 100.0%
Mean MPE ([4]; tolerance development, dose 2 (day 1.25), s.c. BID, 20 minutes post-drug): 100.0%
Mean MPE ([4]; tolerance development, dose 2 (day 1.25), s.c. BID, 30 minutes post-drug): 100.0%
Mean MPE ([4]; tolerance development, dose 3 (day 2), s.c. BID, 20 minutes post-drug): 99.1%
Mean MPE ([4]; tolerance development, dose 3 (day 2), s.c. BID, 30 minutes post-drug): 100.0%
Mean MPE ([4]; tolerance development, dose 4 (day 2.25), s.c. BID, 20 minutes post-drug): 79.8%
Mean MPE ([4]; tolerance development, dose 4 (day 2.25), s.c. BID, 30 minutes post-drug): 88.2%
Mean MPE ([4]; tolerance development, dose 5 (day 3), s.c. BID, 20 minutes post-drug): 84.7±10.0% and 84.7%
Mean MPE ([4]; tolerance development, dose 5 (day 3), s.c. BID, 30 minutes post-drug): 66.7±10.9% and 66.7%
Mean MPE ([4]; tolerance development, dose 6 (day 3.25), s.c. BID, 20 minutes post-drug): 81.1%
Mean MPE ([4]; tolerance development, dose 6 (day 3.25), s.c. BID, 30 minutes post-drug): 69.7%
Mean MPE ([4]; tolerance development, dose 7 (day 4), s.c. BID, 20 minutes post-drug): 70.6±12.3% and 70.6%
Mean MPE ([4]; tolerance development, dose 7 (day 4), s.c. BID, 30 minutes post-drug): 72.8%
Mean MPE ([4]; tolerance development, dose 8 (day 4.25), s.c. BID, 20 minutes post-drug): 75.0%
Mean MPE ([4]; tolerance development, dose 8 (day 4.25), s.c. BID, 30 minutes post-drug): 51.3%
Mean MPE ([4]; tolerance development, dose 9 (day 5), s.c. BID, 20 minutes post-drug): 75.9±9.5% and 75.9%
Mean MPE ([4]; tolerance development, dose 9 (day 5), s.c. BID, 30 minutes post-drug): 40.8±11.2% and 40.8%
Mean MPE ([4]; tolerance development, dose 10 (day 5.25), s.c. BID, 20 minutes post-drug): 47.4±11.9% and 47.4%
Mean MPE ([4]; tolerance development, dose 10 (day 5.25), s.c. BID, 30 minutes post-drug): 28.5±9.3% and 28.5%
Mean MPE ([4]; tolerance development, dose 11 (day 6), s.c. BID, 20 minutes post-drug): 34.2±12.5% and 34.2%
Mean MPE ([4]; tolerance development, dose 11 (day 6), s.c. BID, 30 minutes post-drug): 21.1%
Mean MPE ([4]; tolerance development, dose 12 (day 6.25), s.c. BID, 20 minutes post-drug): 37.7±12.7% and 37.7%
Mean MPE ([4]; tolerance development, dose 12 (day 6.25), s.c. BID, 30 minutes post-drug): 11.8±7.9% and 11.8%
antinociceptive effect / tolerance in DPI-125 tolerant animals ([4]; tolerant to 1.0 mg/kg DPI-125 BID, challenge morphine 5.0 or DPI-125 1.0 mg/kg): no antinociceptive effects
antinociceptive effect / tolerance in morphine tolerant animals ([4]; tolerant to 5.0 mg/kg morphine BID, challenge morphine 5.0 or DPI-125 1.0 mg/kg): only partially tolerant; also recorded: significant antinociceptive effects
antinociceptive ED50 ([5]; DPI-125 tolerant animals): 1.218 mg/kg
Fold Change of ED50 ([5]; DPI-125 tolerant versus naive animals): 2.99 fold and 3.0 fold
ED50 ([5]; DPI-125 tolerant animals): 1.22 mg/kg
ED50 ([5]; morphine tolerant animals): 0.72 mg/kg
ED50 ([5]; naive animals): 0.41 mg/kg
potency in morphine tolerant animals relative to DPI-125 tolerant animals ([5]; more potent in morphine tolerant): 1.7 fold
antinociceptive ED50 ([5]; morphine tolerant animals): 0.717 mg/kg
antinociceptive ED50 ([5]; naive animals): 0.407 mg/kg
delta-opioid agonist activity [6]: acts as a delta-opioid agonist
delta receptor agonist activity [7]: an agonist at the delta receptor
Therapeutic Ratio [8]: 14.4
therapeutic index relative to morphine [8]: approximately 7 ×
ED50 (in vivo): 0.72 mg/kg
